Data taken from patent US20240279278A1, “NMU RECEPTOR 2 AGONISTS” (Boehringer Ingelheim International GmbH, priority 2023, published 2024).
Starred links: 1 amine or outer side, 2 acyl side, 3 side chain; linkers in the order of their positions; H or OH if unused. Non-standard residues stand in square brackets, D forms with d. Residues, ends and D or L forms follow the SMILES beside them. *: point of attachment. Pipz(1-CH2CO,4-CH2CH2NH) = O=C(CN1CCN(CCN[*:1])CC1)[*:2]; C18 diacid = O=C(O)CCCCCCCCCCCCCCCCC(=O)*; γGlu = O=C(O)[C@H](CCC(=O)[*:2])N[*:1]; 2Pal = N[C@@H](Cc1ccccn1)C(=O)O; 4Pal = N[C@@H](Cc1ccncc1)C(=O)O; NMeL = CN[C@@H](CC(C)C)C(=O)O; NMeA = CN[C@@H](C)C(=O)O; Nle = CCCC[C@H](N)C(=O)O; Sar = CNCC(=O)O

What was measured:
Type in all cases: cell-based
[1] = target: T1, human NMUR1 receptor (Homo sapiens, UniProt Q9HB89); experiment: IP1 Gq HTRF assay, activation of human NMUR1 in buffer; settings: CHO-K1 cells expressing human NMUR1, stimulation buffer with 0.1% BSA; read-out: EC50 (hNMUR1) buffer
T1 construct: expressed in transfected cells; host or cells: CHO-K1
T1 sequence (Q9HB89 1-426): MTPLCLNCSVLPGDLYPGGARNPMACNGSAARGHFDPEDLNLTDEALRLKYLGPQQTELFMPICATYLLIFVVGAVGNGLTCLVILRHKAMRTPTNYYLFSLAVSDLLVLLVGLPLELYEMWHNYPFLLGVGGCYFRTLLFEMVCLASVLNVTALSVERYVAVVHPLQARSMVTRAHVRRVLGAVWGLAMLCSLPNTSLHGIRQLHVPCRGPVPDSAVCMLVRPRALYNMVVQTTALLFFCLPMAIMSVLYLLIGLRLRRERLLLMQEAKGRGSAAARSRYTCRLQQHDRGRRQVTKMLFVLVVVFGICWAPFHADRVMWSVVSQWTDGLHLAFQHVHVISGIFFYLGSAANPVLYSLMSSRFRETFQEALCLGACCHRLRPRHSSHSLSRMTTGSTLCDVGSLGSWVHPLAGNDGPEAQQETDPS
Description: (§1) Example 3: IP1 Gq HTRF Assay Activation of Human NMUR2 or Human NMUR1 in Buffer Application of the Homogenous Time Resolved Fluorescence (HTRF) technology optimized for Gq coupled receptors has been described in detail in the Cisbio IP-One Gq kit manual. In brief, a FRET signal (FRET: fluorescence resonance energy transfer) is generated between the donor label of an IP-One antibody (anti-IP1-Tb) and the acceptor label of a tagged IP-One (IP1-d2). Agonism of a Gq coupled receptor increases intracellular IP-One, which competes with labeled IP-One and leads to a reduction of the FRET signal. Frozen stocks of CHO-K1 cells stably expressing the human NMUR1 or NMUR2 receptor were thawed and 5000 cells were seeded in culture medium (HAM'S F12, 10% FCS) into each well of a 384-well assay plate. After seeding, cells were incubated for 24 h in a humidified incubator at 37° C. and 5% CO2. Next, cells were washed once with 50 μL of wash buffer (20 mM Hepes, 1×HBSS, pH 7.4), followed by addition of either 10 μL of stimulation buffer (20 mM Hepes, 1×HBSS, 50 mM LiCl, 0.1% BSA, pH 7.4). Peptide agonists to be tested were dissolved in 100% DMSO and pre-diluted in stimulation buffer at a suitable concentration range for an 8 pt dose-response curve. 5 μL of peptide pre-dilution were then added to each well, followed by another 5 μL of stimulation buffer to give a final concentration of 1% DMSO. Samples were subsequently incubated for 1 hour in a humidified incubator at 37° C. After addition of 5 μL each of IP1-d2 and anti-IP1-Tb, samples were incubated for another 1 hour at room temperature and FRET signals (ratio 665 nm/620 nm) were measured. EC50 values were calculated by nonlinear regression using a 4-parameter sigmoidal curve fit.

[2] = target: T2, human NMUR2 receptor (Homo sapiens, UniProt Q9GZQ4); experiment: IP1 Gq HTRF assay, activation of human NMUR2 in buffer; set-up: expressed in transfected cells; host or cells: CHO-K1; settings: CHO-K1 cells expressing human NMUR2, stimulation buffer with 0.1% BSA; read-out: EC50 (hNMUR2) buffer
T2 sequence (Q9GZQ4 whole entry): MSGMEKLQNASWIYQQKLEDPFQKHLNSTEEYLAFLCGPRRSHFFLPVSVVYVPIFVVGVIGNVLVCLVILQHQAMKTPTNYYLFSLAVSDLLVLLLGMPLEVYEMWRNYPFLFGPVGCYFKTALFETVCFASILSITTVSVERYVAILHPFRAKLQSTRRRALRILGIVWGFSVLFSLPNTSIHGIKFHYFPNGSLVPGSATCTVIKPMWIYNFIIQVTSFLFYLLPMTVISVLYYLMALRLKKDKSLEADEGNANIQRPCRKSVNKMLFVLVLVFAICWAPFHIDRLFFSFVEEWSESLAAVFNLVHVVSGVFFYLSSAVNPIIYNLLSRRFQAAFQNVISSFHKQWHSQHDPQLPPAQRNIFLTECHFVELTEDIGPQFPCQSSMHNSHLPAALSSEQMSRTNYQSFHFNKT
Description: as §1

[3] = target: T2, human NMUR2 receptor; experiment: IP1 Gq HTRF assay, activation of human NMUR2 in human plasma; set-up: expressed in transfected cells; host or cells: CHO-K1; settings: CHO-K1 cells expressing human NMUR2, 100% human plasma; read-out: EC50 (hNMUR2) human plasma
Description: Example 4: IP1 Gq HTRF Assay Activation of Human NMUR2 in Human Plasma Application of the Homogenous Time Resolved Fluorescence (HTRF) technology optimized for Gq coupled receptors has been described in detail in the Cisbio IP-One Gq kit manual. In brief, a FRET signal is generated between the donor label of an IP-One antibody (anti-IP1-Tb) and the acceptor label of a tagged IP-One (IP1-d2). Agonism of a Gq coupled receptor increases intracellular IP-One, which competes with labeled IP-One and leads to a reduction of the FRET signal. Frozen stocks of CHO-K1 cells stably expressing the human NMUR1 receptor or human NMUR2 receptor were thawed and 5000 cells were seeded in culture medium (HAM'S F12, 10% FCS) into each well of a 384-well assay plate. After seeding, cells were incubated for 24 h in a humidified incubator at 37° C. and 5% CO2. Next, cells were washed once with […] of wash buffer (20 mM Hepes, 1×HBSS, pH 7.4), followed by addition of […] (100% human plasma, 50 mM LiCl). Peptide agonists to be tested were dissolved in 100% DMSO and pre-diluted in plasma at a suitable concentration range for an 8 pt dose-response curve. 5 μL of peptide pre-dilution were then added to each well, followed by another 5 μL of plasma to give a final concentration of 1% DMSO. Samples were subsequently incubated for 1 hour in a humidified incubator at 37° C. The plasma solution was replaced by 20 μL of stimulation buffer. After addition of 5 μL each of IP1-d2 and anti-IP1-Tb, samples were incubated for another 1 hour at room temperature and FRET signals (ratio 665 nm/620 nm) were measured. EC50 values were calculated by nonlinear regression using a 4-parameter sigmoidal curve fit.

| EC50 [1] [µM] | EC50 [2] [µM] | EC50 [3] [µM] | Structure (SMILES) |
| --- | --- | --- | --- |
| > 1 | 0.14 | 0.709 | CCCC[C@H](NC(=O)[C@H](CC(C)C)N(C)C(=O)[C@H](Cc1ccccc1)NC(=O)[C@H](Cc1ccc(O)cc1)NC(=O)CN1CCN(CCNC(=O)CN(C)C(=O)CN(C)C(=O)CN(C)C(=O)CN(C)C(=O)CN(C)C(=O)CN(C)C(=O)CN(C)C(=O)CN(C)C(=O)CN(C)C(=O)CN(C)C(=O)CN(C)C(=O)CN(C)C(=O)CN(C)C(=O)CN(C)C(=O)CN(C)C(=O)CC[C@H](NC(=O)CC[C@H](NC(=O)CC[C@H](NC(=O)CCCCCCCCCCCCCCCCC(=O)O)C(=O)O)C(=O)O)C(=O)O)CC1)C(=O)N[C@@H](Cc1ccncc1)C(=O)N(C)[C@@H](C)C(=O)N[C@@H](CCCNC(=N)N)C(=O)NCC(N)=O [Compound 58, C18DA-gGlu3-Sar15-AEPipAc-Tyr-Phe-NMeLeu-Nle-4Pal-NMeAla-Arg-Gly-NH2] ({C18 diacid-γGlu-γGlu-γGlu}-[Sar][Sar][Sar][Sar][Sar][Sar][Sar][Sar][Sar][Sar][Sar][Sar][Sar][Sar][Sar][Pipz(1-CH2CO,4-CH2CH2NH)]YF[NMeL][Nle][4Pal][NMeA]RG-NH2) |
| > 1 | 0.072 | 0.432 | CCCC[C@H](NC(=O)[C@H](CC(C)C)N(C)C(=O)[C@H](Cc1ccccc1)NC(=O)[C@H](Cc1ccc(O)cc1)NC(=O)CN1CCN(CCNC(=O)CN(C)C(=O)CN(C)C(=O)CN(C)C(=O)CN(C)C(=O)CN(C)C(=O)CN(C)C(=O)CN(C)C(=O)CN(C)C(=O)CN(C)C(=O)CN(C)C(=O)CN(C)C(=O)CN(C)C(=O)CN(C)C(=O)CN(C)C(=O)CN(C)C(=O)CC[C@H](NC(=O)CC[C@H](NC(=O)CC[C@H](NC(=O)CCCCCCCCCCCCCCCCC(=O)O)C(=O)O)C(=O)O)C(=O)O)CC1)C(=O)N[C@@H](Cc1ccccn1)C(=O)N1CCC[C@H]1C(=O)N[C@@H](CCCNC(=N)N)C(=O)NCC(N)=O [Compound 56, C18DA-gGlu3-Sar15-AEPipAc-Tyr-Phe-NMeLeu-Nle-2Pal-Pro-Arg-Gly-NH2] ({C18 diacid-γGlu-γGlu-γGlu}-[Sar][Sar][Sar][Sar][Sar][Sar][Sar][Sar][Sar][Sar][Sar][Sar][Sar][Sar][Sar][Pipz(1-CH2CO,4-CH2CH2NH)]YF[NMeL][Nle][2Pal]PRG-NH2) |
| 1.3 | 0.002 | 0.0122 | CCCC[C@H](NC(=O)[C@H](CC(C)C)N(C)C(=O)[C@H](Cc1ccccc1)NC(=O)[C@H](Cc1ccc(O)cc1)NC(=O)CN1CCN(CCNC(=O)CN(C)C(=O)CN(C)C(=O)CN(C)C(=O)CN(C)C(=O)CN(C)C(=O)CN(C)C(=O)CN(C)C(=O)CN(C)C(=O)CN(C)C(=O)CN(C)C(=O)CN(C)C(=O)CN(C)C(=O)CC[C@H](NC(=O)CC[C@H](NC(=O)CC[C@H](NC(=O)CC[C@H](NC(=O)CCCCCCCCCCCCCCCCC(=O)O)C(=O)O)C(=O)O)C(=O)O)C(=O)O)CC1)C(=O)N[C@@H](CCN)C(=O)N1CCC[C@H]1C(=O)N[C@@H](CCCNC(=N)N)C(=O)NCC(N)=O [Compound 41, C18DA-gGlu4-Sar12-AEPipAc-Tyr-Phe-NMeLeu-Nle-Dbu-Pro-Arg-Gly-NH2] |
| > 1 | 0.005 | 0.0121 | CCCC[C@H](NC(=O)[C@H](CC(C)C)N(C)C(=O)[C@H](Cc1ccccc1)NC(=O)[C@H](Cc1ccc(O)cc1)NC(=O)CN1CCN(CCNC(=O)CN(C)C(=O)CN(C)C(=O)CN(C)C(=O)CN(C)C(=O)CN(C)C(=O)CN(C)C(=O)CN(C)C(=O)CN(C)C(=O)CN(C)C(=O)CN(C)C(=O)CN(C)C(=O)CN(C)C(=O)CC[C@H](NC(=O)CC[C@H](NC(=O)CC[C@H](NC(=O)CCCCCCCCCCCCCCCCCCC(=O)O)C(=O)O)C(=O)O)C(=O)O)CC1)C(=O)N[C@@H](CCN)C(=O)N(C)[C@@H](C)C(=O)N[C@@H](CCCNC(=N)N)C(=O)NCC(N)=O [Compound 59, C20DA-gGlu3-Sar12-AEPipAc-Tyr-Phe-NMeLeu-Nle-Dbu-NMeAla-Arg-Gly-NH2] |

| Structure (SMILES) | EC50 [1] [µM] | EC50 [2] [µM] | EC50 [3] [µM] |
| --- | --- | --- | --- |
| CCCC[C@H](NC(=O)[C@H](CC(C)C)N(C)C(=O)[C@H](Cc1ccccc1)NC(=O)[C@H](Cc1ccc(O)cc1)NC(=O)CN1CCN(CCNC(=O)CN(C)C(=O)CN(C)C(=O)CN(C)C(=O)CN(C)C(=O)CN(C)C(=O)CN(C)C(=O)CN(C)C(=O)CN(C)C(=O)CN(C)C(=O)CN(C)C(=O)CN(C)C(=O)CN(C)C(=O)CN(C)C(=O)CN(C)C(=O)CN(C)C(=O)CC[C@H](NC(=O)CC[C@H](NC(=O)CC[C@H](NC(=O)CCCCCCCCCCCCCCCCCCC(=O)O)C(=O)O)C(=O)O)C(=O)O)CC1)C(=O)N[C@@H](CCCN)C(=O)NCCC(=O)N[C@@H](CCCNC(=N)N)C(=O)NCC(N)=O [Compound 30, C20DA-gGlu3-Sar15-AEPipAc-Tyr-Phe-NMeLeu-Nle-Orn-bAla-Arg-Gly-NH2] (HELM PEPTIDE1{[O=C(O)CCCCCCCCCCCCCCCCCCC(=O)[*:2]].[gGlu].[gGlu].[gGlu].[Sar].[Sar].[Sar].[Sar].[Sar].[Sar].[Sar].[Sar].[Sar].[Sar].[Sar].[Sar].[Sar].[Sar].[Sar].[O=C(CN1CCN(CCN[*:1])CC1)[*:2]].Y.F.[meL].[Nle].[Orn].[bAla].R.G.[am]}$$$$V2.0) | > 1 | 0.067 | 0.725 |
| CCCC[C@H](NC(=O)[C@H](CC(C)C)N(C)C(=O)[C@H](Cc1ccccc1)NC(=O)[C@H](Cc1ccc(O)cc1)NC(=O)CN1CCN(CCNC(=O)CN(C)C(=O)CN(C)C(=O)CN(C)C(=O)CN(C)C(=O)CN(C)C(=O)CN(C)C(=O)CN(C)C(=O)CN(C)C(=O)CN(C)C(=O)CC[C@H](NC(=O)CC[C@H](NC(=O)CCCCCCCCCCCCCCCCC(=O)O)C(=O)O)C(=O)O)CC1)C(=O)N[C@@H](CCCN)C(=O)N(C)[C@@H](C)C(=O)N[C@@H](CCCNC(=N)N)C(=O)NCC(N)=O [Compound 44, C18DA-gGlu2-Sar9-AEPipAc-Tyr-Phe-NMeLeu-Nle-Orn-NMeAla-Arg-Gly-NH2] (HELM PEPTIDE1{[O=C(O)CCCCCCCCCCCCCCCCC(=O)[*:2]].[gGlu].[gGlu].[Sar].[Sar].[Sar].[Sar].[Sar].[Sar].[Sar].[Sar].[Sar].[O=C(CN1CCN(CCN[*:1])CC1)[*:2]].Y.F.[meL].[Nle].[Orn].[meA].R.G.[am]}$$$$V2.0) | > 1 | 0.0022 | 0.0205 |
